Laboratory results from patent US20220062190A1, “Therapeutic Agent and Nutraceutical Compositions And Methods for Making and Using Same” (NUREVELATION, LLC, priority 2020, published 2022).
Counter-ions that a name gives are not always drawn.

Experiments:
[1] = octanol/water; value not marked predicted; source not stated; cited from earlier work
[2] = tested on: movement disorder due to antipsychotics known as dystonia and parkinsonism; details: use column of Table 1A; cited from earlier work
[3] = Solubility in water when preparing mass spectrometry standards; assay type: physicochemical; details: standard and batch prepared in methanol instead
Experimental: Samples for mass spectrometry were weighed and then concentrated to 5 mg/mL. The samples were further diluted to 0.1 mg/mL for analysis in 50/50 water to methanol. Standards were prepared to 20 μg/mL in optima grade methanol or water. The following standards were prepared in water at 20 μg/mL: bethanechol chloride, chloroquine diphosphate, cyclobenzaprine hydrochloride, D-penicillamine, ondansetron hydrochloride, venlafaxine hydrochloride, and donepezil hydrochloride.

| SMILES | LogP [1] | other results |
| --- | --- | --- |
| NCC(CC(=O)O)c1ccc(Cl)cc1 (centres unmarked) [Baclofen] | 1.3 | – |
| CN1[C@@H]2CC[C@H]1C[C@@H](OC(c1ccccc1)c1ccccc1)C2 [Benztropine] | – | duration of benefits [2]: ≤ 10 h; time until benefits are seen [2]: ≤ 2 h |
| CC(C[N+](C)(C)C)OC(N)=O (centres unmarked) [Bethanechol chloride] | −4.1 | – |
| COc1ccccc1OCCNCC(O)COc1cccc2[nH]c3ccccc3c12 (centres unmarked) [Carvedilol] | 3.8 | – |
| CN(C)CCC=C1c2ccccc2C=Cc2ccccc21 [Cyclobenzaprine hydrochloride] | 5.2 | – |
| CC(C)(S)[C@@H](N)C(=O)O [D-penicillamine] | −1.78 | – |
| CC1=NS(=O)(=O)c2cc(Cl)ccc2N1 [Diazoxide] | 1.20 | – |
| C[C@H]1c2cccc(O)c2C(=O)C2=C(O)[C@]3(O)C(=O)C(C(N)=O)=C(O)[C@@H](N(C)C)[C@@H]3[C@@H](O)[C@@H]21 [Doxycycline] | 0.63 | – |
| C#C[C@]1(O)CC[C@H]2[C@@H]3CCc4cc(O)ccc4[C@H]3CC[C@@]21C [Ethinylestradiol] | 3.67 | – |
| COc1ccccc1OCC(O)CO (centres unmarked) [Guaifenesin] | 1.39 | – |
| CCCCC1=NC2(CCCC2)C(=O)N1Cc1ccc(-c2ccccc2-c2nnn[nH]2)cc1 [Irbesartan] | 4.5 | – |
| Nc1nnc(-c2cccc(Cl)c2Cl)c(N)n1 [Lamotrigine] | 1.93 | – |
| N[C@@H](Cc1cc(I)c(Oc2cc(I)c(O)c(I)c2)c(I)c1)C(=O)O [Levothyroxine] | 4.0 | – |
| NCCCC[C@H](N[C@@H](CCc1ccccc1)C(=O)O)C(=O)N1CCC[C@H]1C(=O)O [Lisinopril dihydrate] | −1.01 | – |
| CC[C@H](C)C(=O)O[C@H]1C[C@@H](C)C=C2C=C[C@H](C)[C@H](CC[C@@H]3C[C@@H](O)CC(=O)O3)[C@H]21 [Lovaststin] | 4.08 | – |
| Cc1cnc(NC(=O)C2=C(O)c3ccccc3S(=O)(=O)N2C)s1 [Meloxicam] | 0.1 | – |
| Nc1ccc(O)c(C(=O)O)c1 [Mesalamine] | −0.29 | – |
| NC(=O)c1cnccn1 [Pyrazinamide] | −0.60 | – |
| Cc1ncc(CO)c(CO)c1O [Pyridoxine] | −0.77 | – |
| CNC(=C[N+](=O)[O-])NCCSCc1ccc(CN(C)C)o1 [Ranitidine] | 0.2 | – |
| Cc1nc2n(c(=O)c1CCN1CCC(c3noc4cc(F)ccc34)CC1)CCCC2 [Risperidone] | – | solubility in water [3]: insolubility in water |
| CC(=O)S[C@@H]1CC2=CC(=O)CC[C@]2(C)[C@H]2CC[C@@]3(C)[C@@H](CC[C@@]34CCC(=O)O4)[C@H]12 [Spironolactone] | 2.78 | – |
